Reference: ChEMBL document CHEMBL1136637, “Prodrugs to enhance central nervous system effects of the TRH-like peptide pGlu-Glu-Pro-NH2” (Bioorg Med Chem Lett, 2003)
Square brackets hold non-standard residues; d marks the D form. Peptide text beside a SMILES is read from it. * marks the point of attachment. ξ: configuration not given here. pGlu = O=C1CC[C@@H](C(=O)O)N1; ξE = NC(CCC(=O)O)C(=O)O; OcHex = C1CCC(O*)CC1; OBn = c1ccc(CO*)cc1; OtBu = CC(C)(C)O*

What was measured:
Mus musculus [1] = species: Mus musculus; assay: (§1) Effective dose required for producing 50% of the maximum analeptic response was determined; type: functional
[2] = Half-life using mouse brain homogenate; type: ADME
Mus musculus [3] = species: Mus musculus; assay: as §1; type: functional, organism-based

Structure (SMILES)	half-life [2]	EC50 (Mus musculus [3])	ED50 (Mus musculus [1])
CCCCCCOC(=O)CCC(NC(=O)[C@@H]1CCC(=O)N1)C(=O)N1CCC[C@H]1C(N)=O (some centres not stated)	22 min	–	2.4 µmol/kg
NC(=O)[C@@H]1CCCN1C(=O)C(CCC(=O)OC1CCCCC1)NC(=O)[C@@H]1CCC(=O)N1 (some centres not stated) ([pGlu]-[ξE](OcHex)-Pro-NH2)	25 min	–	–
NC(=O)[C@@H]1CCCN1C(=O)C(CCC(=O)OCc1ccccc1)NC(=O)[C@@H]1CCC(=O)N1 (some centres not stated) ([pGlu]-[ξE](OBn)-Pro-NH2)	> 120 min	–	–

Further lines, with some results ahead:

half-life [2]	EC50 (Mus musculus [3])	Structure (SMILES)	ED50 (Mus musculus [1])
–	23.2 µM/kg	NC(=O)[C@@H]1CCCN1C(=O)[C@H](CCC(=O)O)NC(=O)[C@@H]1CCC(=O)N1 ([pGlu]-Glu-Pro-NH2)	–
20 min	–	COC(=O)CCC(NC(=O)[C@@H]1CCC(=O)N1)C(=O)N1CCC[C@H]1C(N)=O (some centres not stated) ([pGlu]-[ξE](OMe)-Pro-NH2)	–
70 min	–	CC(C)(C)OC(=O)CCC(NC(=O)[C@@H]1CCC(=O)N1)C(=O)N1CCC[C@H]1C(N)=O (some centres not stated) ([pGlu]-[ξE](OtBu)-Pro-NH2)	–
